The values that follow come from patent publication US9790235B2, “MK2 inhibitors and uses thereof” (Celgene CAR LLC, priority 2014, dated 2017).

Like-named read-outs stand apart in the source and are kept apart here. A value given as a limit tells only on which side of the number the result lay.

Test [1] has as its target T1, MK2 (Homo sapiens (Human), UniProt P49137). Kind of test: MK2 cellular assay, total and phospho-Hsp27 (Serine 78) by MSD ELISA (Thp1). Format: cell-based. The protocol:
MK2 Cellular Assay—Detection of Total and Phospho-Hsp27 (Serine 78) by MSD ELISA (Thp1)
Compounds of the invention were assayed in Thp-1 human acute monocytic leukemia cells to measure inhibition of MK2 activity. Thp-1 cells were grown in culture medium containing RPMI/10% FBS (fetal bovine serum)/0.05 mM 2-mercaptoethanol. 72 hours prior to the assay, 8×10^4 cells per well were plated in a 96 well flat bottom plate along with 10 ng/mL phorbol 12-myristate 13-acetate (PMA). Cells were cultured in an incubator at 37° C. until needed for the assay. Cell plate media was replaced with culture media just prior to assay while compound dilutions were being made.
Stock solutions of test compound, 1 mM in DMSO, were prepared. 0.9 μl of test compound was added to 300 μl cell media for a starting concentration of 3000 nM. […] Cell plate media was discarded, followed by addition of 100 μl of the compound containing media. The resulting preparation was incubated at 37° C. for 1 hour.
Test compound-containing cell assay media was removed and the cells were washed once with cell assay media. Cell assay media containing 50 ng/mL LPS (lipopolysaccharide) was added to the each well and incubated for 45 minutes. Following LPS incubation, the cells were washed once with PBS (phosphate-buffered saline) and lysed with 60 μl Cell Extraction Buffer (Invitrogen #FNN0011) plus protease and phosphatase inhibitors. The plate was then stored at −80° C. until further analysis.
The MULTI-SPOT Phospho(Ser78)/Total HSP27 ELISA Assay kit was purchased from Meso Scale […] (MSD; catalog #K15128D). […] The pre-coated MSD plate was blocked with 150 μL/well of 3% BSA in MSD wash buffer. The preparation was placed on a shaker at room temperature for an hour. While the ELISA plate was blocked, the cell assay plate stored at −80° C. was placed on a shaker at 4° C. for 1 hour to thaw.
The blocked MSD plate was washed on a plate washer, tapping out the last bit of wash solution, followed by addition of 30 μl of the lysate from the cell assay plate. The preparation was covered and incubated for 1 hour at room temperature. The lysate was removed, the plate was washed 3 times on a plate washer and the last bit of wash buffer was tapped out and replaced with 25 μl/well detection antibody (anti-total HSP27 conjugated with an electrochemiluminescent compound, MSD SULFO-TAG label, supplied in kit) made in 1% BSA/MSD wash buffer. The plate was incubated for 1 hour at room temperature on a shaker, followed by 3 washes. The last bit of wash buffer was tapped out. 150 μl/well 1×MSD read buffer was added (4× read buffer supplied with kit) and the plate was analyzed on the MSD SECTOR® Imager for analysis. The SECTOR® Imager measures intensity of emitted light to provide a quantitative measure of phosphorylated HSP27 (Ser78) and total HSP27 present in the sample. The relative percent phosphoprotein in a sample is calculated by dividing the Phospho-HSP27 signal intensity over the total HSP27 signal intensity measured in each well.

In test [2] the target is p38α activated, mitogen-activated protein kinase-activated protein kinase 2 (MAPKAP-K2 or MK2) enzyme (Homo sapiens (Human), UniProt P49137). Kind of test: MK2 Omnia continuous-read kinase assay for compound potency. Type of test: biochemical. The settings on record: [MK-2]=0.4 nM, [ATP]=10 μM, [ST3-Sox]=10 μM; read-out: MK2 IC50. Put shortly:
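Continuous fluorescence read (λex360/λem485) with 0.4 nM p38α-activated MK2, 10 μM ATP (apparent KM) and 10 μM S/T3-Sox peptide, monitored over 120 min at room temperature. Background-corrected initial slopes gave % inhibition and IC50 with Hill slope; exponential fits gave kobs, yielding apparent kinact/KI.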

In test [3] the target is T1, MK2. The settings on record: percentage of modified protein after 60 minutes at room temperature, 10-fold excess of compound; MALDI (I-1 to I-50), magnetic bead MALDI (I-51 to I-129).
[4] abbreviates: Thp-1 cells, 1 hour compound, 50 ng/mL LPS 45 minutes, p-HSP27 (Ser78)/total HSP27, read-out: pHSP27 signaling EC50.
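Throughout, for Mass Modification: covalent binding read from centroid mass shift of compound-treated versus untreated intact MK2, shift divided by compound molecular weight, giving fraction of total protein bound.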

T1 sequence (P49137 whole entry): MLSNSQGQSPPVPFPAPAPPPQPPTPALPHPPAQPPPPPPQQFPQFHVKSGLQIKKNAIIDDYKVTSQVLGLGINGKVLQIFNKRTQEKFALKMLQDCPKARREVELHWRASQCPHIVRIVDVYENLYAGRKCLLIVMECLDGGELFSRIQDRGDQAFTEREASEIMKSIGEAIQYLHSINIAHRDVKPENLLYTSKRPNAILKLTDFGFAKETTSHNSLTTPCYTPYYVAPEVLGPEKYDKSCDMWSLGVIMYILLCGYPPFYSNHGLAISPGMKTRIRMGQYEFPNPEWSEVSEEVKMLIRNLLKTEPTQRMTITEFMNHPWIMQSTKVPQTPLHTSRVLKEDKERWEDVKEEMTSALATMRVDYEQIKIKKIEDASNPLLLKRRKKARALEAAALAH
p38α activated, mitogen-activated protein kinase-activated protein kinase 2 (MAPKAP-K2 or MK2) enzyme, sequence (P49137 whole entry): as above

A word on the EC50: it is the concentration giving half of the maximal effect. Usually IC50 stands for the concentration needed to halve the response being measured. Regarding `C[C@@H]1CNc2c(sc3ccc4nc(N(C)c5cc(F)ncn5)ccc4c23)C(=O)N1` [I-38, (R)-3-((6-fluoropyrimidin-4-yl)(methyl)amino)-10-methyl-9,10,11,12-tetrahydro-8H-[1,4]diazepino[5′,6′:4,5]thieno[3,2-f]quinolin-8-one], at MK2 [1], the EC50 was more than 1 µM. In addition, in test [2], the IC50 is less than 0.1 µM. Moreover, the “Mass Modification” value at MK2 [3] is listed as “G (mass modification ≦30%)”.
As for `C[C@@H]1CNc2c(sc3ccc4nc(Nc5nc(F)cc(OC6COC6)n5)ccc4c23)C(=O)N1` [I-42, (R)-3-((4-fluoro-6-(oxetan-3-yloxy)pyrimidin-2-yl)amino)-10-methyl-9,10,11,12-tetrahydro-8H-[1,4]diazepino[5′,6′:4,5]thieno[3,2-f]quinolin-8-one], on MK2 [1], the EC50 fell in the range of 0.501 to 0.999 µM. In test [2], the IC50 is less than 0.1 µM. The “Mass Modification” value at MK2 [3] is “G (mass modification ≦30%)”.
For `COCCOc1nc(F)cc(Nc2ccc3c(ccc4sc5c(c43)NC[C@@H](C)NC5=O)n2)n1` [I-44, (R)-3-((6-fluoro-2-(2-methoxyethoxy)pyrimidin-4-yl)amino)-10-methyl-9,10,11,12-tetrahydro-8H-[1,4]diazepino[5′,6′:4,5]thieno[3,2-f]quinolin-8-one] the same measures were 0.101 to 0.5 µM, less than 0.1 µM and “G (mass modification ≦30%)”.
For `COCCOc1cc(F)nc(Nc2ccc3c(ccc4sc5c(c43)NC[C@@H](C)NC5=O)n2)n1` [I-45, (R)-3-((4-fluoro-6-(2-methoxyethoxy)pyrimidin-2-yl)amino)-10-methyl-9,10,11,12-tetrahydro-8H-[1,4]diazepino[5′,6′:4,5]thieno[3,2-f]quinolin-8-one] the same measures were more than 1 µM, less than 0.1 µM and “G (mass modification ≦30%)”.
For `C[C@@H]1CNc2c(sc3ccc4nc(Nc5cc(F)nc(OC6CCCN(C)C6)n5)ccc4c23)C(=O)N1` (stereo partly drawn) [I-47, (10R)-3-((6-fluoro-2-((1-methylpiperidin-3-yl)oxy)pyrimidin-4-yl)amino)-10-methyl-9,10,11,12-tetrahydro-8H-[1,4]diazepino[5′,6′:4,5]thieno[3,2-f]quinolin-8-one], the EC50 at MK2 [1] fell in the range of 0.101 to 0.5 µM. The IC50 in test [2] is less than 0.1 µM. Besides, the “Mass Modification” value at MK2 [3] is listed as “F (mass modification of 31-69%)”.
In the case of `C[C@@H]1CNc2c(sc3ccc4nc(Oc5ccnc(Cl)n5)ccc4c23)C(=O)N1` [I-53, (R)-3-((2-chloropyrimidin-4-yl)oxy)-10-methyl-9,10,11,12-tetrahydro-8H-[1,4]diazepino[5′,6′:4,5]thieno[3,2-f]quinolin-8-one], the EC50 at MK2 [1] (setting [4]) lay within 0.101 to 0.5 µM. For the same compound, the IC50 in test [2] was less than 0.1 µM. The “Mass Modification” value on MK2 [3] is “F (mass modification of 31-69%)”.
The like results for `C[C@@H]1CNc2c(sc3ccc4nc(Sc5cc(F)ncn5)ccc4c23)C(=O)N1` [I-54, (R)-3-((6-fluoropyrimidin-4-yl)thio)-10-methyl-9,10,11,12-tetrahydro-8H-[1,4]diazepino[5′,6′:4,5]thieno[3,2-f]quinolin-8-one] were, in that order, more than 1 µM, less than 0.1 µM and “E (mass modification of ≧70%)”.
With `C[C@@H]1CNc2c(sc3ccc4nc(Oc5cncc(Cl)n5)ccc4c23)C(=O)N1` [I-55, (R)-3-((6-chloropyrazin-2-yl)oxy)-10-methyl-9,10,11,12-tetrahydro-8H-[1,4]diazepino[5′,6′:4,5]thieno[3,2-f]quinolin-8-one], the EC50 on MK2 [1] (setting [4]) is more than 1 µM. Moreover, the IC50 in test [2] was 0.101 to 0.5 µM. The “Mass Modification” value at MK2 [3] is listed as “G (mass modification ≦30%)”.
For `C[C@@H]1CNc2c(sc3ccc4nc(Oc5cc(Cl)ncn5)ccc4c23)C(=O)N1` [I-56, (R)-3-((6-chloropyrimidin-4-yl)oxy)-10-methyl-9,0,11,12-tetrahydro-8H-[1,4]diazepino[5′,6′:4,5]thieno[3,2-f]quinolin-8-one] the same measures were less than 0.1 µM, less than 0.1 µM and “E (mass modification of ≧70%)”.
Turning to `COCc1nc(Cl)cc(Oc2ccc3c(ccc4sc5c(c43)NC[C@@H](C)NC5=O)n2)n1` [I-57, (R)-3-((6-chloro-2-(methoxymethyl)pyrimidin-4-yl)oxy)-10-methyl-9,10,11,12-tetrahydro-8H-[1,4]diazepino[5′,6′:4,5]thieno[3,2-f]quinolin-8-one], on MK2 [1] (setting [4]), the EC50 is less than 0.1 µM. In test [2], the IC50 was less than 0.1 µM. Besides, the “Mass Modification” value at MK2 [3] was “E (mass modification of ≧70%)”.
Consider `Cc1nc(Cl)cc(Oc2ccc3c(ccc4sc5c(c43)NC[C@@H](C)NC5=O)n2)n1` [I-58, (R)-3-((6-chloro-2-methylpyrimidin-4-yl)oxy)-10-methyl-9,10,11,12-tetrahydro-8H-[1,4]diazepino[5′,6′:4,5]thieno[3,2-f]quinolin-8-one], for which the EC50 on MK2 [1] (setting [4]) is less than 0.1 µM. Further, the IC50 in test [2] was less than 0.1 µM. Besides, the “Mass Modification” value on MK2 [3] was “E (mass modification of ≧70%)”.
On to `C[C@@H]1CNc2c(sc3ccc4nc(Nc5cc(Cl)nc(OC6CCCN(C)C6)n5)ccc4c23)C(=O)N1` (stereo partly drawn) [I-59, (10R)-3-((6-chloro-2-((1-methylpiperidin-3-yl)oxy)pyrimidin-4-yl)amino)-10-methyl-9,10,11,12-tetrahydro-8H-[1,4]diazepino[5′,6′:4,5]thieno[3,2-f]quinolin-8-one], for which the EC50 on MK2 [1] (setting [4]) lay in the range of 0.501 to 0.999 µM. Besides, in test [2], the IC50 was less than 0.1 µM. In addition, at MK2 [3], the “Mass Modification” value is “E (mass modification of ≧70%)”.
The like results for `C[C@@H]1CNc2c(sc3ccc4nc(Nc5cc(Cl)nc(O[C@@H]6CCN(C)C6)n5)ccc4c23)C(=O)N1` [I-60, (R)-3-((6-chloro-2-(((R)-1-methylpyrrolidin-3-yl)oxy)pyrimidin-4-yl)amino)-10-methyl-9,10,11,12-tetrahydro-H-[1,4]diazepino[5′,6′:4,5]thieno[3,2-f]quinolin-8-one] were, in that order, 0.101 to 0.5 µM, less than 0.1 µM and “F (mass modification of 31-69%)”.
For `C[C@@H]1CNc2c(sc3ccc4nc(Nc5nc(Cl)cc(OCCN6CCN(C)CC6)n5)ccc4c23)C(=O)N1` [I-61, (R)-3-((4-chloro-6-(2-(4-methylpiperazin-1-yl)ethoxy)pyrimidin-2-yl)amino)-10-methyl-9,10,11,12-tetrahydro-8H-[1,4]diazepino[5′,6′:4,5]thieno[3,2-f]quinolin-8-one] the same measures were more than 1 µM, less than 0.1 µM and “G (mass modification ≦30%)”.
For `C[C@@H]1CNc2c(sc3ccc4nc(Oc5nc(Cl)nc(N6CCCC6)n5)ccc4c23)C(=O)N1` [I-62, (R)-3-((4-chloro-6-(pyrrolidin-1-yl)-1,3,5-triazin-2-yl)oxy)-10-methyl-9,10,11,12-tetrahydro-8H-[1,4]diazepino[5′,6′:4,5]thieno[3,2-f]quinolin-8-one] the same measures were 0.101 to 0.5 µM, less than 0.1 µM and “E (mass modification of ≧70%)”.
In the case of `C[C@@H]1CNc2c(sc3ccc4nc(Oc5nc(Cl)nc(N6CCOCC6)n5)ccc4c23)C(=O)N1` [I-63, (R)-3-((4-chloro-6-morpholino-1,3,5-triazin-2-yl)oxy)-10-methyl-9,10,11,12-tetrahydro-8H-[1,4]diazepino[5′,6′:4,5]thieno[3,2-f]quinolin-8-one], the EC50 on MK2 [1] (setting [4]) is less than 0.1 µM. The IC50 in test [2] was less than 0.1 µM. The “Mass Modification” value at MK2 [3] is “E (mass modification of ≧70%)”.
